What was measured:
male dog = assay: NICOM study: cardiac data in anesthetized, mechanically ventilated dog; format: in vivo; conditions: phenylephrine followed by SNP; for cardiac output (CO): dobutamine incremental infusion doses, esmolol after dobutamine
Method: In one embodiment, the monitor comprises two electrodes (2601, 2602) which carry out two roles simultaneously. The first role is to deliver a continuous low-voltage alternating electrical current. The second role is to sample at a very fast rate the signal emanating from a patient. The signals are then analyzed to determine stroke volume (SV), heart rate (HR), cardiac output (CO), stroke volume variation (SVV) and other hemodynamic information. In one embodiment, the two electrodes 2601 and 2602 are placed on the surface of the chest of a human being 2604 to collect cardiac data. Although a human being 2604 is depicted, one of ordinary skill will understand that any mammal can be the subject. Further, one of ordinary skill in the art will appreciate that the two electrodes 2601 and 2602 may be placed on different locations of the body of the subject to obtain data.
A noninvasive cardiac output monitoring (NICOM) monitor was utilized to measure cardiac data from an anesthetized, mechanically ventilated, 54 lb, 42 inch (nose to base of tail) male dog. FIGS. 23-27 depict the cardiac data measured by the NICOM monitor.
The gap in data at 11:20 indicates electrocautery interference when the chest of the dog was opened. FIG. 24 depicts the data in response to sequential fluid boluses. An approximate 20% increase in CO was detected reflecting changes in both SV and HR. […] FIG. 26 depicts the cardiodepressant effect of the ultra-short beta-blocker esmolol given after dobutamine and recalibration. […] FIG. 27 depicts the response to increasing blood pressure with phenylephrine followed by decreasing blood pressure with sodium nitroprusside (SNP). Prior to this intervention, the dog chest had been opened and commercially available flow monitors had been implanted on the pulmonary artery (PA). Baseline PA flow data, which was measured by the implantable monitors, was 2.7 L/min. The PA flow data measured by the NICOM monitor was 2.812 L/min.

Dahl/SS rats = assay: Pharmacodynamic study of VD by SQ infusion in Dahl/SS rats on 4% salt diet; conditions: for blood pressure compared with 4% vehicle control group at week 3: week 3, p-value<0.05
Method: The pharmacodynamic effects of VD were investigated in a rat model. Forty male Dahl/SS rats were shipped to the animal facilities at PhysioGenix, Inc. (Milwaukee, Wis.). The rats were maintained on a low-salt diet and allowed to acclimate. After acclimation, animals had baseline parameters collected while on the low-salt diet. Baseline tail-cuff blood pressures and echocardiograms were measured. Baseline urine was collected for analysis of protein and albumin. Animals were then randomly assigned to one of 4 groups (10 animals per group):
1. Vehicle Control; low-salt diet, n=10 2. Vehicle Control; 4% salt diet, n=10 3. Vessel dilator, 100 ng/kg/min, 4% salt diet, n=10 4. Vessel dilator, 300 ng/kg/min, 4% salt diet, n=10
The vehicle control groups were infused with a citrate-mannitol-saline buffer (0.66 mg/mL citric acid, 6.43 mg/mL sodium citrate, 40 mg/mL mannitol, 9 mg/mL NaCl). The animals were on a Teklad 7034 (low-salt) diet or Dyets AIN-76A 4% salt diet, as indicated, throughout a 6 week course of the study and had free access to water.
Alzet® minipumps (Durect, Corp.) were surgically implanted on Days 1, 15, and 29 of the study to maintain continuous vehicle or drug dispensing at the desired dose for a total period of 6 weeks. Urine was collected at baseline, 2, 4 and 6 weeks after the initiation of the treatment to assess proteinuria and albuminuria. After six weeks of treatment, the animals were then euthanized.

[1] = tested on: canine model high-rate paced (HRP); assay: Pharmacodynamic study of VD by subcutaneous infusion in high-rate paced canine heart failure model
Description: The pharmacodynamic effects of VD delivered by subcutaneous infusion were investigated in a canine model high-rate paced (HRP) to a heart rate of 240 bpm (ventricular pacing) over a period of 10 days to simulate HF. The canines were divided into a control group and an experimental group. The control group received a continuous subcutaneous infusion of the Tris buffer without VD over the course of the 10 day period. The experimental group received continuous subcutaneous infusion of VD dissolved in Tris buffer at a dosing rate of 100 ng/kg·min based upon the body weight of individual canines.
Seven days prior to the beginning of HRP (Day −7), all dogs were instrumented for ventricular pacing with an IPG (implantable pulse generator) including an RA (right atrium) and RV (right ventricle) lead, and a DSI (Digital Sciences International) device in the femoral artery for arterial blood pressure monitoring. Glomerular filtration rate (GFR) was measured by iohexol clearance on the day before the beginning of HRP (Day −1). On Day 0, high-rate pacing was initiated at a rate of 240 BPM (beats per minute) and maintained continuously over the course of a 10 day period (Days 0-10). After HRP was started on Day 0, urine, blood, and hemodynamic data was collected from conscious animals to serve as a baseline.
On Days 0-10, in combination with pacing, each animal received continuous subcutaneous (SQ) infusion of an agent (Tris buffer solution for control animals and vessel dilator in Tris buffer for experimental animals) delivered via external catheter and pump. SQ infusion was performed using Medtronic MiniMed® 407C pumps equipped with 3.0 mL reservoirs (#MMT-103A) and Medtronic Silhouette® combo infusion sets (#MMT373). GFR measurements were repeated on Day 9. On Day 10 (with HRP On), a pre-term monitor was performed for urine and hemodynamic data collection on conscious animals. Once the data was collected, HRP was turned off and the animals were euthanized.

CC(CCc1ccc(O)cc1)NCCc1ccc(O)c(O)c1 (stereo not drawn) [dobutamine]
cardiac output (CO) (male dog; NICOM monitor): marked increase

COC(=O)CCc1ccc(OCC(O)CNC(C)C)cc1 (stereo not drawn) [esmolol]
cardiac output (CO) (male dog; NICOM monitor): marked decline

CNC[C@H](O)c1cccc(O)c1 [phenylephrine]
cardiac output (CO) (male dog; NICOM monitor): reduced | heart rate (HR) (male dog; NICOM monitor): reflex slowing | blood pressure (male dog): elevated

vessel dilator (EVVPPQVLSEPNEEAGAALSPLPEVPPWTGEVSPAQR; Vessel dilator; UniProt P01160 56-92, looked up) [VD]
average blood pressure compared with vehicle control group on 4% salt diet (Dahl/SS rats; high-dose VD 300 ng/kg/min SQ infusion): attenuated blood pressure | blood pressure compared with 4% vehicle control group at week 3 (Dahl/SS rats; high-dose VD 300 ng/kg/min): statistically significant decrease | decrease in blood pressure compared with 4% vehicle control group at week 5 (Dahl/SS rats; high-dose VD 300 ng/kg/min): not as statistically significant | average blood pressure compared with vehicle control group on 4% salt diet (Dahl/SS rats; low-dose VD 100 ng/kg/min SQ infusion): attenuated blood pressure | blood pressure compared with 4% vehicle control group at week 3 (Dahl/SS rats; low-dose VD 100 ng/kg/min): statistically significant decrease | decrease in blood pressure compared with 4% vehicle control group at week 5 (Dahl/SS rats; low-dose VD 100 ng/kg/min): not as statistically significant | difference in pulmonary capillary wedge pressure between control and experimental group on Day 10 ([1]; VD 100 ng/kg·min SQ infusion, two-way repeated measures ANOVA): does not appear to be statistically significant | extent of increase in pulmonary capillary wedge pressure Day 0 to Day 10 compared with control group ([1]; VD 100 ng/kg·min continuous SQ infusion): smaller than that observed in the control group | increase in right atrial pressure compared with control group ([1]; VD 100 ng/kg·min continuous SQ infusion, Day 10, p-value<0.05): significantly less than for the control group | mean right atrial pressure, change from Day 0 to Day 10 ([1]; VD 100 ng/kg·min continuous SQ infusion, HRP 240 bpm for 10 days): increased slightly

Reference: patent US20140031787A1, “FEEDBACK-BASED DIURETIC OR NATRIURETIC MOLECULE ADMINISTRATION” (Medtronic, Inc., priority 2012, published 2014)
